From patent US4620930A, “Process for rapidly determining biological toxicity of wastewater” (priority 1985, dated 1986)
≈ marks a conversion by molar mass, not a printed value. Read-outs that look alike come from different tables or passages of the source.

Tests used:
[1] = tested on: PHENOBAC bacterial culture; test: microbe, parasite or virus in culture; format: cell-based, PHENOBAC mutant bacteria containing Pseudomonas; settings: for IC50: 20 min, read-out: concentration resulting in an inhibition of the bacteria of about 50%
Excerpt: In the rapid toxicity test described herein the dried culture first undergoes rehydration and then respiration development when contacted with aqueous system containing organic material.
In carrying out the test process, a preselected amount of the dried bacterial culture is first charged to a preselected amount of a standardized substrate for the purpose of determining a standard of respiration or activity of the culture. […] Typically, the quantity of bacterial culture is selected to give a good rate of oxygen decline, e.g., a decline of 2-5 mg/liter oxygen over a twenty minute interval. For reference purposes from 5 to 15 grams of culture/500 ml. of sample solution will be sufficient. The standardized substrate used in the test procedure is […] or another standardized medium of known composition. […] During this period, this oxygen respiration activity is measured by measuring the dissolved oxygen content in the substrate. The dissolved oxygen content then is plotted as a function of time. The rate of decline of dissolved oxygen content in the substrate is ascertained at some preselected time where the rate of dissolved oxygen decline is substantial and where the residual oxygen in the sample of greater than 0.5 mg/l oxygen. With bacterial cultures of the type described, this preselected time can be within the range of 10 to 30 minutes. […] Although numerous methods can be used to ascertain the rate of decline of oxygen, the simplest is to determine that rate from a graph by taking the slope (y/x) of the curve at the preselected time.
The organic quality of sewage, in terms of organic content or toxic substance, is measured by repeating the exact same process, using the test sample in place of the standardized sample. In many instances, particularly where the test sample contains a substantial amount of toxic material or organic matter, the test sample may be diluted with distilled water to provide a more accurate measurement. This is done in those cases where the slope of the curve is small. In any event, the test substrate or wastewater to be tested is added to the test vessel containing the bacterial culture and the dissolved oxygen content measured as a function of time. The rate of decline in dissolved oxygen content for the test substrate or wastewater is then determined at the same preselected time utilized for the standard. This rate of decline is then compared to the rate of decline for the standardized substrate. The relative toxicity or inhibition of the test water versus the standardized substrate, can then be calculated by the equation: [formula]
A baseline standard was generated for a bacterial formulation sold under the trademark PHENOBAC by Polybac Corporation by first charging 350 ml of distilled water to a first vessel. The water was then saturated with oxygen by sealing the vessel which was half full of air and shaking it rapidly.

[2] = tested on: PHENOBAC bacterial culture; test: microbe, parasite or virus in culture; settings: Pseudomonas, pH 7, read-out: percent inhibition, with prehydration
Procedure: A baseline standard was generated for a bacterial formulation sold under the trademark PHENOBAC by Polybac Corporation by first charging 350 ml of distilled water to a first vessel. The water was then saturated with oxygen by sealing the vessel which was half full of air and shaking it rapidly. The dissolved oxygen content of the sample was then measured to determine if the oxygen level exceeded 5.0 mg/l at a temperature of 20° C. (If the level was above 5.0 mg/l, it was assumed the sample was sufficiently saturated with oxygen to proceed.) After oxygen saturation, the water was charged to a second vessel containing 8 grams of the dried granular PHENOBAC mutant bacteria containing Pseudomonas and 0.6 grams of potassium bicarbonate. The latter acted to buffer the pH in the vessel to approximately 7. A dissolved oxygen probe was then inserted into the vessel and the contents of the vessel stirred while measuring the dissolved oxygen concentration in the vessel. Several measured data points were recorded in one to two minute intervals for a period of about 30 minutes. These values were plotted with dissolved oxygen in mg/liter represented on the ordinant and time (minute) plotted represented on the abscissa. The baseline standard curves are shown as Curves A and J on FIGS. 1 and 2 respectively.
A series of tests was conducted for the purpose of determining the relative toxicity of various phenolic solutions. The general test technique involved the utilization of test samples containing various known concentrations of toxic material, e.g., phenol. The test sample was buffered to a pH of 7 by the addition of sodium hydroxide or sulphuric acid. Measurement of pH using pH paper was found most convenient. Once the pH of the solution was at the appropriate level, the sample was then aerated by placing the sample in a vessel half full of air, sealing the vessel and shaking the vessel vigorously for several minutes. The oxygen saturated 350 ml. solution having a dissolved oxygen content greater than 5.0 mg/l was then introduced to a test vessel containing 8 grams of dried granular PHENOBAC bacterial culture and 0.5 g of sodium bicarbonate. The dissolved oxygen concentration in the closed sealed vessel was then measured and plotted for a series of phenol concentrations in FIG. 1 in the same manner as the baseline standard in Example 1 and also illustrated in FIG. 1. Each curve, B-G, is labeled with respect to the phenol concentration present during the test. Curve A represents the baseline standard. From these curves one can calculate the rate of decline in dissolved oxygen concentration observed at 20 minutes for each phenol concentration. The percent inhibition is then calculated from the various dissolved oxygen decline curves for each phenol concentration in FIG. 1 according to the equation: [formula]
As in Examples 1 and 2, the general technique for these tests involved pretreatment of the wastewater or test solution to achieve a pH of 7.0 and an oxygen saturation of at least 5.0 mg/l. However, prior to adding the test solution to the test vessel containing the dried PHENOBAC culture, the bacteria were allowed to rehydrate 10 minutes in clean water and then the test solution containing phenol was added to the test vessel. In this manner, the initial rehydration of the bacterial populations was carried out in the absence of the chemical being tested. This is the customary prior art procedure. After rehydration, the bacteria were then exposed to the test chemical and its effect on bacterial respiration evaluated.

[3] = Pseudomonas, pH 7, read-out: percent inhibition, preferred contact rehydration

Compound: C=O [formaldehyde]
- IC50 ([1]; Pseudomonas): ~140 µg/mL (≈ 4.66 mM)

Compound: [Cu+2] [copper, copper (+2) ion]
- concentration resulting in an inhibition of the bacteria of about 50% ([1]; from FIG. 3, rate of dissolved oxygen decline at 20 minutes versus baseline standard): 29 mg/L

Compound: Oc1ccccc1 [phenol]
- IC50 ([1]; Pseudomonas): ~1600 µg/mL (≈ 17 mM)
- inhibition at 312 µg/mL [1, 3]: 12%
- inhibition at 625 µg/mL [1, 3]: 22%
- inhibition at 1250 µg/mL [1, 3]: 37%
- inhibition at 2500 µg/mL [1, 3]: 68%
- inhibition at 5000 µg/mL [1, 3]: 87%
- inhibition at 10000 µg/mL [1, 3]: 98%
- inhibition or sensitivity of the bacteria, direct contact rehydration compared with prehydration in water ([1]; rehydrated in direct contact with the test phenol solutions rather than in water first): greater inhibition or sensitivity
- inhibition at 312 µg/mL [2]: 10%
- inhibition at 625 µg/mL [2]: 17%
- inhibition at 1250 µg/mL [2]: 33%
- inhibition at 2500 µg/mL [2]: 57%
- inhibition at 5000 µg/mL [2]: 80%
- inhibition at 10000 µg/mL [2]: 93%
